Reference: patent US20110113495A1, “SCREENING METHOD FOR AGENTS SUITABLE FOR PROPHYLAXIS AND THERAPY OF ALZHEIMER'S DISEASE (AD)” (priority 2008, published 2011)
“Also recorded” adds a separate entry of the source.

Experiments:
[1] = Size exclusion chromatography of freshly dissolved Aβ1-42 peptides (oligomer size distribution); format: physicochemical; conditions: freshly dissolved peptide 1 mg/ml, Superose 12 column, 1×PBS
Protocol: In order to discriminate the various oligomeric forms of Aβ wildtype and mutant peptides, a size exclusion chromatography was performed. Therefore, a Superose 12 column (Amersham Bioscience) was equilibrated with 1×PBS (137 mM NaCl, 2.7 mM KCl, 10 mM Na2HPO4, 2 mM KH2PO4) under conditions recommended by the manufacturer. Thereafter 1 mg peptide was monomerized with 50 μl concentrated formic acid and evaporated. Peptides were solubilized in H2O containing 0.125% NH3 to a final concentration of 1 mg/ml.
A volume of 500 μl was centrifuged at maximal speed for 10 minutes and loaded on the column with a flow rate of 0.5 ml/min. For determination of the peptide concentration, fractions were tested with Bradford-, BCA-assay and dot blot analysis. The collected fractions were immediately applied for further analysis.
In this study it was investigated to what extent the GxxxG motif effects the aggregation of Aβ1-42 peptides. Aβ1-42 peptides and the oligomers were separated by use of SEC.

[2] = test system: SH-SY5Y cells (human neuroblastoma cells); experiment: Toxicity test (MTT) with human neuroblastoma cells; format: cell-based; conditions: 10 μM peptide or SEC fractions, 12 h
Protocol: SH—SY5Y cells were routinely cultured in DMEM/Ham'sF12 medium (PAA) supplemented with 10% (v/v) bovine calf serum, 2 mM glutamine, 0.1 mM non-essential amino acids and 0.5 mM sodium pyruvate in a 5% CO2 humidified atmosphere at 37° C.
Cells were plated at a density of 1.000 cells per well in 100 μl of fresh medium on 96-well plates. After 48 h medium was replaced by DMEM/Ham's F12 with 100 Uml^−1 penicillin and 10 μg streptomycin including 10 μM peptide, freshly dissolved in H2O containing 0.125% NH3 or fractions received by size exclusion chromatography. Probe and control were incubated for 12 h. Cell mediated reduction of 3-(4,5-dimethylthiazol-2-yl)-2,5-diphenyltetrazolium bromide (MTT) was used to monitor Aβ toxicity by addition of 10 μl of a 5 mgml^−1 MTT stock solution and incubation for further 1-2 h. Before measuring the absorbance of blue formazan at 562 nm using an automatic micro plate reader, cells were lysed with 50 μl DMSO for 10 minutes at room temperature.
The toxic effects of various oligomers on human neuroblastoma cells was determined by use of the MTT test allowing to quantify the toxicity.

[3] = test system: primary hippocampal rat neurons; experiment: Toxicity test (MultiTox-Fluor) with primary hippocampal rat neurons; format: cell-based; conditions: normalized peptide concentration, 48 h
Protocol: Hippocampi from P0-P1 Wistar rat pups were used for primary neuronal dissociated cultures. Tissue was dissected in HBSS containing Ca^2+ and Mg^2+ and incubated with an enzyme solution containing 1 mM CaCl2, 0.5 mM EDTA Ph 8.0, 2 mg/ml Cystein and 200-250 units papain (Worthington) in BME for 60 min at 37° C. Supernatant was removed and cells were incubated in inactivation solution (2.5 mg/ml BSA, 2.5 mg/ml Trypsin inhibitor (both Sigma) and 10% FCS in BME) for 5 min at. RT. Tissue clumps were dissociated by repeated passage through 1 ml pipettes. Cells were centrifuged for 10 min at 12000 rpm, 4° C. and resuspended in Neurobasal A medium supplemented with 2% B27, 2 mM Glutamax and 0.2% Penicillin/Streptomycin (all Gibco). Neurons were cultured on glia cell feeder layers in 96 well plates with 5×10^3 cells in 100 μl medium. For feeder layer cultures rat P0-P1 cortices were prepared as described above and cultured at a density of 1×10^6 cells in a T75 flask for at least one week in BME medium supplemented with 10% FCS, 5 mM glucose, 1 mM Glutamax, 10 mM Hepes, 2.5 μg/ml insulin, 0.2% Penicillin/Streptomycin. Cells were trypsinized and 2×10^3 cells per well were seeded in 96 wells plates four days before neurons were added.
After ten days of incubation neuronal cultures were treated with Aβ1-42 freshly dissolved in H2O or with SEC fractions for another 48 h. Neuronal viability was detected by using MultiTox-Fluor Multiplex Cytotxicity assay (Promega) as recommended by the producer.
Cells treated with buffer only were set as non-toxic.

[4] = test system: acute hippocampal rat brain sections or slices (area CA1 fEPSPs); experiment: Long term potentiation (LTP) of acute hippocampal rat brain slices; conditions: slices incubated with 500 nM peptide 20 min prior to tetanisation
Protocol: Hippocampal slices were prepared from 3-6 week old Wistar rats. Rats were decapitated under ether anesthesia. The brain was removed quickly and sectioned into 300 μm thick slices using a vibroslicer (Leica). The slices were maintained at room temperature in a holding chamber containing oxygenated artificial cerebrospinal fluid (ACSF; 129 mM NaCl, 1 mM NaH2PO4, 10 mM Glucose, 1.8 mM MgSO4, 1.6 mM CaCl2, 3 mM KCl, NaHCO3 21 mM). (Ringer: 119 mM NaCl, 1 mM NaH2PO4, 10 mM Glucose, 1.3 mM MgSO4, 2.5 mM CaCl2, 2.5 mM KCl, NaHCO3 26 mM) Ph 7.2-7.4 Osmolarität 0.28-0.31 Osmol/kg.
After at least 1 h equilibration, slices were transferred into submerged recording chamber and continuously perfuse with room temperature oxygenated ACSF at 3 ml/min throughout the experiments. […] Peptide was not washed during the experiment.
Field excitatory postsynaptic potentials (fEPSPs) were recorded of stratum radiatum area CA1 evoked by Schaffer collateral stimulation with ACSF filled electrodes. Two independent pathways were measured whereas two stimulating electrodes lay parallel to each other.
Baseline responses were collected using test pulses that yield 30-40% of the maximal fEPSP slope. LTP was induced by Theta brust stimulation (TBS) of one of the two pathways. The inter-theta burst stimulation interval was 20 sec and four TBSs were applied to induce LTP. TBS consisted of 10 bursts delivered at 5 Hz. Each burst consisted of four pulses delivered at 100 Hz with a pulse-duration of 0.2 msec. (Evers M., Salmen B., Schachner M., 2002 J. Neuroscience)
The amount of LTP was described as percent changes of (EPSP slopes after TBS normalized to baseline values with an additional subtraction of the second, unstimulated pathway. Slopes were analysed using IGOR program.
In order to assay whether Aβ oligomers show an effect on learning and commemoration LTP (long term potentiation) of acute hippocampal sections of rat brains was determined. Several recent publications report on the inhibition of LTP by Aβ1-42. This effect can be equated with cognitive deficiencies observed for AD patients. In order to further improve these performance tests and to minimize possible side effects of the peptides on the general network plasticity of the sections, two independent neuronal pathways were assayed. Whereas the first pathway was stimulated for inducing LTP, the second one was assayed unstimulated as a control. It could be confirmed that Aβ peptides inhibit LTP.

Substance | oligomer size distribution / aggregation by SEC [1] | toxic effect (MTT) [2] | toxic effect (Multi-tox) [3] | oligomer size distribution / aggregation by SEC ([1]; listed as G33A) | LTP induction after theta burst stimulation [4] | oligomer size distribution / aggregation by SEC ([1]; listed as Aβ1-42) | LTP induction after theta burst stimulation ([4]; listed as tetramers of the Aβ1-42G33A peptide)
Aβ1-42G29/33A: Aβ1-42 double mutant G29/33A | Most of the oligomers have a low MW, but large amounts of oligomers having a higher MW are already visible | only weak toxicity | weak toxicity | – | – | – | –
Aβ1-42G33A: Aβ1-42 peptide with glycine at position 33 replaced by alanine | shift to oligomers with a higher MW | – | – | minor amounts of tetramers are still detectable | – | – | –
Aβ1-42 wt: wild type amyloid beta 1-42 peptide containing the G29xxxG33 motif [reference compound] | immediately aggregates to 4- and 6-mers | strong toxic effect | strong toxic effect | – | no LTP is induced | 4- to 6mers | –
Aβ1-42G33A tetramers: tetramers of the Aβ1-42G33A peptide | – | no toxic effects were observed | – | – | correspond to the results obtained for Aβ1-42G331 | – | LTP could be induced
Aβ1-42G29A: Aβ1-42 peptide with mutation at position 29 (G to A) | – | strong toxic effect | strong toxic effect | – | – | – | –
Aβ1-42G331: Aβ1-42 peptide with glycine at position 33 replaced by isoleucine | – | – | – | – | induced LTP shows the same value as the control; also recorded: LTP could be induced | – | –
Aβ1-42 tetramers: tetramers (SEC fraction) of wild type Aβ1-42 peptide [reference compound] | – | highest toxicity | highest toxicity | – | cause a measurable loss of cognitive performance | – | –
